From patent US9451775B2, “Heterocyclic compounds as pesticides” (Bayer Intellectual Property GmbH, priority 2008, dated 2016)
Where two headings read alike, the source gives them in different places.

Tests used:
[1] = test system: green peach aphid (Myzus persicae); assay: Myzus test (spray treatment); type: in vivo; details: foliar, read-out: activity (effect in %, aphids killed)
Description: Myzus Test (Spray Treatment)
• Solvents: 78.0 parts by weight of acetone • 1.5 parts by weight of dimethylformamide • Emulsifier: 0.5 part by weight of alkylaryl polyglycol ether
To produce a suitable preparation of active compound, 1 part by weight of active compound is mixed with the stated amounts of solvents and emulsifier, and the concentrate is diluted with emulsifier-containing water to the desired concentration.
Discs of leaves of Chinese cabbage (Brassica pekinensis) which are heavily infested by all stages of the green peach aphid (Myzus persicae) are sprayed with an active compound preparation of the desired concentration.
After the desired period of time, the effect in % is determined. 100% means that all aphids have been killed; 0% means that none of the aphids have been killed.

[2] = logP determination by HPLC (formic acid method); type: physicochemical; details: read-out: logP (HCOOH)
Description: 1) Description of the method for determining the logP values (formic acid method)
The logP values given in the table were determined in accordance with EEC Directive 79/831 Annex V.A8 by HPLC (High Performance Liquid Chromatography) on a reversed-phase column (C18). Temperature: 55° C.
Mobile phases for the determination in the acidic range (pH 3.4):
Mobile phase A: Acetonitrile+1 ml of formic acid/litre. Mobile phase B: water+0.9 ml of formic acid/litre.
Gradient: from 10% mobile phase A/90% mobile phase B to 95% mobile phase A/5% mobile phase B in 4.25 min.
Calibration was carried out using unbranched alkan-2-ones (having 3 to 16 carbon atoms) with known logP values (determination of the logP values by the retention times using linear interpolation between two successive alkanones). The lambda max values were determined in the maxima of the chromatographic signals using the UV spectra from 200 nm to 400 nm.

[3] = application rate of 500 g/ha, sprayed Chinese cabbage leaf discs
[4] = reversed-phase HPLC column (C18), pH 3.4, HPLC on reversed-phase column (C18), acidic range (pH 3.4), 55° C.
[5] = reversed-phase HPLC column (C18), pH 3.4, values printed in the text of the preparation examples, formic acid method

| SMILES | pest or weed control at 500 g/ha [1, 3] | chromatographic logP [2, 4] | chromatographic logP [2, 5] | pest or weed control at 500 g/ha ([1]; in Brassica rapa) | chromatographic logP ([2]; HPLC on reversed-phase column (C18), acidic range (pH 3.4), 55° C.) |
| --- | --- | --- | --- | --- | --- |
| Cc1nc(-c2cccnc2)sc1-c1ccn(-c2ccccn2)n1 [compound 24] | ≥ 80% | 2.94 |  |  |  |
| Cc1nc(-c2cccnc2)sc1-c1ccn(C(=O)NC(C)(C)C(C)C)n1 [compound 130] | ≥ 80% | 4.17 |  |  |  |
| Cn1nc(-c2cccnc2)cc1-c1ccnc(-c2ccccn2)n1 [compound 171] | ≥ 80% | 0.87 |  |  |  |
| Cc1nc(-c2cccnc2)sc1-c1ccn(-c2nnc(C(F)Cl)s2)n1 (centres unmarked) [compound 110] | ≥ 80% | 3.24 |  |  |  |
| Cc1nc(-c2cccnc2)sc1-c1cccc(-n2cccn2)n1 [compound 97] | ≥ 80% | 2.93 |  |  |  |
| Cc1nc(-c2cccnc2)sc1-c1nc(N)nc(C(C)F)n1 (centres unmarked) [compound 93] | ≥ 80% | 1.86 |  |  |  |
| COc1cc(OC)nc(-c2nccc(-c3sc(-c4cccnc4)nc3C)n2)n1 [compound 59] | ≥ 80% | 2.12 |  |  |  |
| Cc1nc(-c2cccnc2)sc1C1=NN(c2ncccn2)CCO1 [Preparation Example 7, 2-(4-Methyl-2-pyridin-3-ylthiazol-5-yl)-4-pyrimidin-2-yl-5,6-dihydro-4H-[1,3,4]oxadiazine] | ≥ 80% | 1.56 | 1.56 |  |  |
| c1cnc(-c2nccc(-c3nnc(-c4cccnc4)s3)n2)nc1 [Preparation Example 9, 4-(5-Pyridin-3-yl-[1,3,4]thiadiazol-2-yl)-[2,2′]bipyrimidinyl] |  | 1.07 | 1.07 | ≥ 80% |  |
| Cc1nc(-c2cccnc2)sc1-n1ccc(Br)n1 [compound 20] | ≥ 80% | 2.28 |  |  |  |
| Cc1nc(-c2cccnc2)sc1-c1ccnc(-c2ccco2)n1 [compound 52] | ≥ 80% | 2.35 |  |  |  |
| Cc1nc(-c2cncc(F)c2)sc1-c1cccc(-c2ncccn2)n1 [compound 152] | ≥ 80% | 2.43 |  |  |  |
| Cc1nc(-c2cccnc2)sc1-n1ccc(-c2ccccc2C(F)(F)F)n1 [compound 38] | ≥ 80% | 3.94 |  |  |  |
| Cc1nc(-c2cccnc2)sc1-c1ccc(C(F)(F)F)cn1 [compound 99] | ≥ 80% | 3.14 |  |  |  |
| Cc1nc(-c2cccnc2)sc1-c1nc(C(F)(F)F)no1 [compound 64] | ≥ 80% | 3.34 |  |  |  |
| Cc1nc(-c2cccnc2)sc1-n1ccc(-c2ccco2)n1 [compound 40] | ≥ 80% | 2.43 |  |  |  |
| Cc1nc(-c2cccnc2)sc1-c1ccn(C(=O)NCC(F)(F)F)n1 [compound 128] | ≥ 80% | 2.38 |  |  |  |
| Cc1nc(-c2cccnc2)sc1-c1nc(C(C)C)no1 [compound 62] | ≥ 80% | 3.23 |  |  |  |
| Cc1nc(-c2cccnc2)sc1-c1ccn(C(=O)NCC(C)C)n1 [compound 120] | ≥ 80% | 2.89 |  |  |  |
| Cc1nc(-c2cccnc2)sc1-c1nc(-c2nc(C)c(C)c(C)n2)no1 [compound 73] | ≥ 80% | 2.34 |  |  |  |
| Cc1nc(-c2cccnc2)sc1-n1ccc(-c2ccccn2)n1 [compound 15] | ≥ 80% | 1.67 |  |  |  |
| Cc1nc(-c2cccnc2)sc1-n1ccc(C(F)(F)F)n1 [Ex. No. 14] | ≥ 80% | 2.63 |  |  |  |
| CCOCC(C)NC(=O)n1ccc(-c2sc(-c3cccnc3)nc2C)n1 (centres unmarked) [compound 118] | ≥ 80% | 2.69 |  |  |  |
| Cc1nc(-c2cccnc2)sc1-c1nccc(C(F)(F)F)n1 [compound 94] | ≥ 80% | 3.14 |  |  |  |

| SMILES | pest or weed control at 500 g/ha [1, 3] | chromatographic logP [2, 4] | chromatographic logP [2, 5] | pest or weed control at 500 g/ha ([1]; in Brassica rapa) | chromatographic logP ([2]; HPLC on reversed-phase column (C18), acidic range (pH 3.4), 55° C.) |
| --- | --- | --- | --- | --- | --- |
| Cc1nc(-c2cccnc2)sc1-c1ccn(-c2nnc(C(C)C)s2)n1 [compound 76] | ≥ 80% | 3.11 |  |  |  |
| Cc1nc(-c2cccnc2)sc1-c1ccnc(-c2cnccn2)n1 [compound 51] | ≥ 80% | 1.59 |  |  |  |
| CCC(COC)NC(=O)n1ccc(-c2sc(-c3cccnc3)nc2C)n1 (centres unmarked) [compound 116] | ≥ 80% | 2.61 |  |  |  |
| Cc1nc(-c2cccnc2)sc1-c1ccncn1 [compound 90] | ≥ 80% | 1.39 |  |  |  |
| c1cnc(-c2nccc(-c3cnc(-c4cccnc4)s3)n2)nc1 [compound 88] | ≥ 80% | 1.05 |  |  |  |
| CCOCCCNC(=O)n1ccc(-c2sc(-c3cccnc3)nc2C)n1 [compound 123] | ≥ 80% | 2.46 |  |  |  |
| COc1cc(OC)nc(-c2noc(-c3sc(-c4cccnc4)nc3C)n2)n1 [compound 74] | ≥ 80% | 2.81 |  |  |  |
| Cc1nc(-c2cccnc2)sc1-c1ccn(C(=O)NC(C)(C)C)n1 [compound 119] | ≥ 80% | 3.23 |  |  |  |
| Cc1cccc(-c2noc(-c3sc(-c4cccnc4)nc3C)n2)n1 [compound 139] | ≥ 80% | 2.61 |  |  |  |
| Cc1nc(-c2cccnc2)sc1-c1ccnc(C(F)(F)C(F)(F)F)n1 [compound 142] | ≥ 80% | 3.35 |  |  |  |
| Cc1nc(-c2cccnc2)sc1-c1ccn(C(=O)NC2CC2)n1 [compound 125] | ≥ 80% | 2.08 |  |  |  |
| Cc1nc(-c2cccnc2)sc1-c1ccn(C(=O)NCC2CC2)n1 [compound 127] | ≥ 80% | 2.57 |  |  |  |
| Cc1nc(-c2cccnc2)sc1-c1ccnc(-n2[nH]c(C(F)(F)F)cc2=O)n1 [compound 66] | ≥ 80% | 2.9 |  |  |  |
| Cc1nc(-c2cccnc2)sc1-c1ccc(C(F)(F)F)nc1 [compound 144] | ≥ 80% | 2.72 |  |  |  |
| Cc1nc(-c2cccnc2)sc1-c1cc(C(F)(F)F)ncn1 [compound 111] | ≥ 80% | 2.8 |  |  |  |
| Cc1ccc(-c2nccc(-c3sc(-c4cccnc4)nc3C)n2)nc1C [compound 55] | ≥ 80% | 1.49 |  |  |  |
| Cc1nc(-c2cccnc2)sc1-c1ccnc(Cn2cncn2)n1 [compound 69] | ≥ 80% | 1.2 |  |  |  |
| c1cncc(-c2nnc(-c3cc[nH]n3)s2)c1 [compound 162] | ≥ 80% | 0.84 |  |  |  |
| Cc1nc(-c2cccnc2)sc1-n1cc(-c2ccccn2)cn1 [compound 39] | ≥ 80% | 1.55 |  |  |  |
| Cc1nc(-c2cccnc2)sc1-c1nc(-c2cc3ccccc3cn2)no1 [compound 72] | ≥ 80% | 3.11 |  |  |  |
| Cc1nc(-c2cccnc2)sc1-c1ccnc(C(F)(F)C(F)(F)C(F)(F)F)n1 [compound 60] |  |  |  | ≥ 80% | 3.84 |
| Cc1nc(-c2cccnc2)sc1-c1ccnc(CC2CC2)n1 [compound 105] | ≥ 80% | 2.69 |  |  |  |
| COCCCNC(=S)n1ccc(-c2sc(-c3cccnc3)nc2C)n1 [compound 135] | ≥ 80% | 3.28 |  |  |  |
| Cc1nc(-c2cccnc2)sc1-c1nnc(C(F)(F)F)s1 [compound 102] | ≥ 80% | 2.85 |  |  |  |
